Measurements: US20250025445A1, “METHOD OF CARDIOPROTECTION” (Race Oncology LTD., priority 2021, published 2025)
Read-outs that look alike come from different tables or passages of the source.

Experiments:
MCF7 breast cancer cells = test: MCF7 breast cancer cell viability (CellTiter-Glo); type: cell-based, human; details: FTO inhibitor up to 10 μM with 1 μM doxorubicin; up to 72 hours; FIG. 13
Experimental: Human breast adenocarcinoma (MCF7) cells were purchased from In Vitro Technologies (Victoria, Australia) and cultured according to manufacturer's recommendations using MCF7 growth media, Low glucose Dulbecco's Modified Eagle's medium (DMEM; Sigma-Aldrich, Australia) supplemented with 10% (v/v) foetal calf serum (Sigma-Aldrich) and 1% (v/v) Penicillin-Streptomycin (Sigma-Aldrich). Briefly, 1×10^6 MCF7 were seeded and grown in Corning® T75 flasks (Sigma-Aldrich) in an incubator at 37° C. under 5% CO2 conditions. At 80-90% confluency, MCF7 were washed with Dulbecco's Phosphate Buffered Saline (Sigma-Aldrich) for 30s at room temperature and followed by incubation with Trypsin-EDTA (Sigma-Aldrich) for 5 mins at 37° C. under 5% CO2 conditions. Trypsin solution was then neutralised with 1:1 volume of MCF7 growth media. The cell suspensions were then collected into Corning® 50 mL centrifuge tubes (Sigma-Aldrich) and centrifuged at 300×g for 10 mins at room temperature. The resulting supernatants were discarded and MCF7 pellets were resuspended with 5-10 mL of pre-warmed MCF7 growth media. Total viable cells were enumerated with Invitrogen™ Countess Cell Counter (Thermo Fisher Scientific, New South Wales, Australia) and 9×10^4 live MCF7 were seeded in triplicate into Corning® 96-well white polystyrene microplate (Sigma).
(§1) Dox, Dauno and Epi, were dissolved in sterile water to make a stock concentration of 20 mM, respectively, while Tz was dissolved in sterile PBS to a stock concentration of 100 μM. […] The concentrations were as follows 0 nM, 15.62 nM, 62.5 nM, 250 nM, 500 nM, 1 μM, 5 μM, and 10 μM. […] Vehicle controls were incubated with media supplemented with either sterile water or DMSO. […] This was repeated at 48 hours and 72 hours. […] Both FB23/2 and brequinar (MedChemExpress) were dissolved in dimethyl sulfoxide (DMSO; Sigma-Aldrich) to make a stock concentration of 40 mM and 20 mM respectively.

[1] = test system: H929 multiple myeloma cells; test: H929 multiple myeloma cell viability (CellTiter-Glo); type: cell-based, human; details: FTO inhibitor up to 10 μM with 1 μM doxorubicin; up to 72 hours
Experimental: Human multiple myeloma NCI-H929 cells were cultured using RPMI-1640 growth media (Sigma-Aldrich), supplemented with 2 mM L-glutamine (Thermo Fisher Scientific), 10% (v/v) foetal calf serum (Sigma-Aldrich) and 0.05 mM 2-mercaptoethanol (Sigma-Aldrich). Briefly, 0.5×10^6 H929 were seeded and grown in Corning® T75 flasks (Sigma-Aldrich) in an incubator at 37° C. under 5% CO2 conditions. At 80-90% confluency, the cell suspension was then collected into Corning® 50 mL centrifuge tubes (Sigma-Aldrich) and centrifuged at 300×g for 10 mins at room temperature. The resulting supernatant were discarded and H929 pellet was resuspended with 5-10 mL of pre-warmed H929 growth media. Total viable cells were enumerated with Invitrogen™ Countess Cell Counter (Thermo Fisher Scientific, New South Wales, Australia) and 1×10^4 live H929 were seeded in triplicate into Corning® 96-well white polystyrene microplate (Sigma). […] The concentrations were as follows 0 nM, 15.62 nM, 62.5 nM, 250 nM, 500 nM, 1 μM, 5 μM, and 10 μM. […] Vehicle controls were incubated with media supplemented with either sterile water or DMSO. […] This was repeated at 48 hours and 72 hours. […] Both FB23/2 and brequinar (MedChemExpress) were dissolved in dimethyl sulfoxide (DMSO; […]

[2] = test system: Primary Human Cardiac Myocytes (HCMs); test: Primary human cardiomyocyte cell viability (CellTiter-Glo); type: cell-based; details: up to 72 hours; for mitigation of toxicity of carfilzomib towards primary HCMs: FTO inhibitor 0-10 μM with 1 μM carfilzomib; for mitigation of toxicity of doxorubicin towards primary HCMs: FTO inhibitor 0-10 μM with 1 μM doxorubicin
Experimental: Primary Human Cardiac Myocytes (HCMs) were purchased from PromoCell® (Heidelberg, Germany) and cultured according to manufacturer's recommendations using PromoCell® Myocyte growth media (5% [v/v] foetal calf serum, 0.5 ng/ml recombinant human epidermal growth factor, 2 ng/ml recombinant human basic fibroblast growth factor, 5 μg/ml recombinant human insulin) supplemented with 1% [v/v] Penicillin-Streptomycin [Sigma-Aldrich]). Briefly, 1×10^6 HCMs were seeded and grown in Corning® T75 flasks (Sigma-Aldrich, New South Wales, Australia) in an incubator at 37° C. under 5% CO2 conditions. At 80-90% confluency, HCMs were gently detached using the DetachKit (PromoCell®), collected into Corning® 50 mL centrifuge tubes (Sigma-Aldrich), and centrifuged at 300×g for 10 mins at room temperature. The resulting supernatant were discarded and HCM pellet was resuspended with 5-10 mL of pre-warmed Myocyte Growth Medium. Total viable cells were enumerated with Invitrogen™ Countess Cell Counter (Thermo Fisher Scientific, New South Wales, Australia) and 1×10^5 live HCMs were seeded in triplicate into Corning® 96-well white polystyrene microplate (Sigma).
as §1

[3] = cited from earlier work
[4] = doxorubicin 5 mg/kg alone
Excerpt: (§2) In particular, well established cardiotoxicity markers, including left ventricular fractional shortening, heart E/A ratio, left ventricular diastolic function, left ventricular dilatation, cardiac output, plasma triglyceride levels, plasma creatine kinase-MB (CK-MB), plasma LDH (lactate dehydrogenase) and plasma brain natriuretic peptide (BNP) were monitored over a period of up to 42 days following the start of treatments delivered weekly, four times (and therefore final treatment on day 21).
(§3) Treatments were delivered to mice intravenously on days 0, 7, 14 and 21. Mice underwent echocardiography measurements at days 0, 21 and 42 to determine LVEF, FS, EDV, ESV, CO, E wave, A wave, E′, E/A, and E/E′, and blood samples were taken at days 0, 21 and 42 to assay for cardiac troponin I levels, BNP levels, CK, LDH levels and triglycerides.

[5] = cited from earlier work; remark: listed apart in the source
[6] = Doxorubicin cardiotoxicity in mice: blood tests; details: doxorubicin 5 mg/kg alone
Excerpt: as §2, §3

[7] = i.v. weekly x4, day 21, worsening by day 42
[8] = 42 days after start of treatment

SMILES: Cc1noc(C)c1-c1cc(Cl)c(Nc2ccccc2C(=O)NO)c(Cl)c1 [FB23/2]
- increased loss of viability of MCF7 cells cultured with doxorubicin (MCF7 breast cancer cells): neither brequinar nor FB23/2, at concentrations of up to 10 μM, resulted in any increased loss of viability
- increased loss of viability of H929 cells cultured with doxorubicin [1]: neither brequinar nor FB23/2, at concentrations of up to 10 μM, resulted in any increased loss of viability
- mitigation of toxicity of carfilzomib towards primary HCMs [2]: did not mitigate the toxicity
- mitigation of toxicity of doxorubicin towards primary HCMs [2]: did not mitigate the toxicity

SMILES: CC(C)C[C@H](NC(=O)[C@H](CCc1ccccc1)NC(=O)CN1CCOCC1)C(=O)N[C@@H](Cc1ccccc1)C(=O)N[C@@H](CC(C)C)C(=O)[C@@]1(C)CO1 [carfilzomib]
- patients with cardiotoxicity [3]: up to 10%

SMILES: Cc1c(-c2ccc(-c3ccccc3F)cc2)nc2ccc(F)cc2c1C(=O)O [brequinar]
- increased loss of viability of MCF7 cells cultured with doxorubicin (MCF7 breast cancer cells): neither brequinar nor FB23/2, at concentrations of up to 10 μM, resulted in any increased loss of viability
- increased loss of viability of H929 cells cultured with doxorubicin [1]: neither brequinar nor FB23/2, at concentrations of up to 10 μM, resulted in any increased loss of viability
- mitigation of toxicity of carfilzomib towards primary HCMs [2]: did not mitigate the toxicity
- mitigation of toxicity of doxorubicin towards primary HCMs [2]: did not mitigate the toxicity

SMILES: COc1cccc2c1C(=O)c1c(O)c3c(c(O)c1C2=O)C[C@@](O)(C(=O)CO)C[C@@H]3O[C@H]1C[C@H](N)[C@H](O)[C@H](C)O1 [doxorubicin]
- heart E/A ratio [4, 7]: significant cardiotoxic effects
- left ventricular fractional shortening [4, 7]: significant cardiotoxic effects
- cardiac output [4, 8]: significant cardiotoxic effects
- left ventricular diastolic function [4, 8]: significant cardiotoxic effects
- left ventricular dilatation [4, 8]: significant cardiotoxic effects
- cardiac output ([4]; day 21): not significantly so
- left ventricular diastolic function ([4]; day 21): not significantly so
- left ventricular dilatation ([4]; day 21): not significantly so
- congestive heart failure incidence ([5]; lifetime cumulative doxorubicin exposure limited to 400-450 mg/m^2): less than 58
- incidence of congestive heart failure ([5]; patients received doxorubicin at 400 mg/m^2): 4.78
- incidence of congestive heart failure ([5]; patients received doxorubicin at 550 mg/m^2): 26%
- incidence of congestive heart failure ([5]; patients received doxorubicin at 700 mg/m^2): 48%
- plasma CK-MB ([6]; day 21): significant increase
- plasma triglyceride levels ([6]; day 21 and day 42): significantly elevated
